Data published in ChEMBL document CHEMBL4715697, “Synthesis and biological activity of benzamide DNA minor groove binders” (2016).

Key:
Format in all cases: functional
Conditions in all cases: read-out: Activity
HL-60(TB) = experiment: Growth inhibition of human HL-60(TB) cells assessed as cell growth at 10 uM incubated for 48 hrs by sulforhodamine B assay relative to control
RPMI-8226 = experiment: Growth inhibition of human RPMI-8226 cells assessed as cell growth at 10 uM incubated for 48 hrs by sulforhodamine B assay relative to control
HOP-62 = experiment: Growth inhibition of human HOP-62 cells assessed as cell growth at 10 uM incubated for 48 hrs by sulforhodamine B assay relative to control
NCI-H226 = experiment: Growth inhibition of human NCI-H226 cells assessed as cell growth at 10 uM incubated for 48 hrs by sulforhodamine B assay relative to control
NCI-H322M = experiment: Growth inhibition of human NCI-H322M cells assessed as cell growth at 10 uM incubated for 48 hrs by sulforhodamine B assay relative to control
NCI-H522 = experiment: Growth inhibition of human NCI-H522 cells assessed as cell growth at 10 uM incubated for 48 hrs by sulforhodamine B assay relative to control
HCC 2998 = experiment: Growth inhibition of human HCC 2998 cells assessed as cell growth at 10 uM incubated for 48 hrs by sulforhodamine B assay relative to control
HCT-116 = experiment: Growth inhibition of human HCT-116 cells assessed as cell growth at 10 uM incubated for 48 hrs by sulforhodamine B assay relative to control
HCT-15 = experiment: Growth inhibition of human HCT-15 cells assessed as cell growth at 10 uM incubated for 48 hrs by sulforhodamine B assay relative to control
HT-29 = experiment: Growth inhibition of human HT-29 cells assessed as cell growth at 10 uM incubated for 48 hrs by sulforhodamine B assay relative to control
KM12 = experiment: Growth inhibition of human KM12 cells assessed as cell growth at 10 uM incubated for 48 hrs by sulforhodamine B assay relative to control
SF-268 = experiment: Growth inhibition of human SF-268 cells assessed as cell growth at 10 uM incubated for 48 hrs by sulforhodamine B assay relative to control
SF-539 = experiment: Growth inhibition of human SF-539 cells assessed as cell growth at 10 uM incubated for 48 hrs by sulforhodamine B assay relative to control
SNB-19 = experiment: Growth inhibition of human SNB-19 cells assessed as cell growth at 10 uM incubated for 48 hrs by sulforhodamine B assay relative to control
SNB-75 = experiment: Growth inhibition of human SNB-75 cells assessed as cell growth at 10 uM incubated for 48 hrs by sulforhodamine B assay relative to control
U-251 = experiment: Growth inhibition of human U-251 cells assessed as cell growth at 10 uM incubated for 48 hrs by sulforhodamine B assay relative to control
LOX IMVI = experiment: Growth inhibition of human LOX IMVI cells assessed as cell growth at 10 uM incubated for 48 hrs by sulforhodamine B assay relative to control
Malme-3M = experiment: Growth inhibition of human Malme-3M cells assessed as cell growth at 10 uM incubated for 48 hrs by sulforhodamine B assay relative to control
M14 = experiment: Growth inhibition of human M14 cells assessed as cell growth at 10 uM incubated for 48 hrs by sulforhodamine B assay relative to control
MDA-MB-435 = experiment: Growth inhibition of human MDA-MB-435 cells assessed as cell growth at 10 uM incubated for 48 hrs by sulforhodamine B assay relative to control
SK-MEL-2 = experiment: Growth inhibition of human SK-MEL-2 cells assessed as cell growth at 10 uM incubated for 48 hrs by sulforhodamine B assay relative to control
SK-MEL-28 = experiment: Growth inhibition of human SK-MEL-28 cells assessed as cell growth at 10 uM incubated for 48 hrs by sulforhodamine B assay relative to control
SK-MEL-5 = experiment: Growth inhibition of human SK-MEL-5 cells assessed as cell growth at 10 uM incubated for 48 hrs by sulforhodamine B assay relative to control
UACC-257 = experiment: Growth inhibition of human UACC-257 cells assessed as cell growth at 10 uM incubated for 48 hrs by sulforhodamine B assay relative to control
UACC-62 = experiment: Growth inhibition of human UACC-62 cells assessed as cell growth at 10 uM incubated for 48 hrs by sulforhodamine B assay relative to control
IGROV-1 = experiment: Growth inhibition of human IGROV-1 cells assessed as cell growth at 10 uM incubated for 48 hrs by sulforhodamine B assay relative to control
OVCAR-3 = experiment: Growth inhibition of human OVCAR-3 cells assessed as cell growth at 10 uM incubated for 48 hrs by sulforhodamine B assay relative to control
OVCAR-5 = experiment: Growth inhibition of human OVCAR-5 cells assessed as cell growth at 10 uM incubated for 48 hrs by sulforhodamine B assay relative to control
OVCAR-8 = experiment: Growth inhibition of human OVCAR-8 cells assessed as cell growth at 10 uM incubated for 48 hrs by sulforhodamine B assay relative to control
786-0 = experiment: Growth inhibition of human 786-0 cells assessed as cell growth at 10 uM incubated for 48 hrs by sulforhodamine B assay relative to control
ACHN = experiment: Growth inhibition of human ACHN cells assessed as cell growth at 10 uM incubated for 48 hrs by sulforhodamine B assay relative to control
CAKI-1 = experiment: Growth inhibition of human CAKI-1 cells assessed as cell growth at 10 uM incubated for 48 hrs by sulforhodamine B assay relative to control
SN12C = experiment: Growth inhibition of human SN12C cells assessed as cell growth at 10 uM incubated for 48 hrs by sulforhodamine B assay relative to control
TK-10 = experiment: Growth inhibition of human TK-10 cells assessed as cell growth at 10 uM incubated for 48 hrs by sulforhodamine B assay relative to control
UO-31 = experiment: Growth inhibition of human UO-31 cells assessed as cell growth at 10 uM incubated for 48 hrs by sulforhodamine B assay relative to control
PC-3 = experiment: Growth inhibition of human PC-3 cells assessed as cell growth at 10 uM incubated for 48 hrs by sulforhodamine B assay relative to control
MCF7 = experiment: Growth inhibition of human MCF7 cells assessed as cell growth at 10 uM incubated for 48 hrs by sulforhodamine B assay relative to control
BT-549 = experiment: Growth inhibition of human BT-549 cells assessed as cell growth at 10 uM incubated for 48 hrs by sulforhodamine B assay relative to control
T47D = experiment: Growth inhibition of human T47D cells assessed as cell growth at 10 uM incubated for 48 hrs by sulforhodamine B assay relative to control
MDA-MB-468 = experiment: Growth inhibition of human MDA-MB-468 cells assessed as cell growth at 10 uM incubated for 48 hrs by sulforhodamine B assay relative to control

CC(=O)Nc1cc(CO)cc(NC(=O)c2cccc(NC(=O)CCCN3CCOCC3)c2)c1
growth at 10 µM (HL-60(TB)): 110% | growth at 10 µM (RPMI-8226): 92.1% | growth at 10 µM (HOP-62): 103% | growth at 10 µM (NCI-H226): 96.7% | growth at 10 µM (NCI-H322M): 105% | growth at 10 µM (NCI-H522): 93.1% | growth at 10 µM (HCC 2998): 101% | growth at 10 µM (HCT-116): 98.9% | growth at 10 µM (HCT-15): 103% | growth at 10 µM (HT-29): 106% | growth at 10 µM (KM12): 135% | growth at 10 µM (SF-268): 107% | growth at 10 µM (SF-539): 98.9% | growth at 10 µM (SNB-19): 97.7% | growth at 10 µM (SNB-75): 102% | growth at 10 µM (U-251): 104% | growth at 10 µM (LOX IMVI): 99.8% | growth at 10 µM (Malme-3M): 112% | growth at 10 µM (M14): 106% | growth at 10 µM (MDA-MB-435): 103% | growth at 10 µM (SK-MEL-2): 97.8% | growth at 10 µM (SK-MEL-28): 115% | growth at 10 µM (SK-MEL-5): 104% | growth at 10 µM (UACC-257): 107% | growth at 10 µM (UACC-62): 100% | growth at 10 µM (IGROV-1): 106% | growth at 10 µM (OVCAR-3): 145% | growth at 10 µM (OVCAR-5): 101% | growth at 10 µM (OVCAR-8): 107% | growth at 10 µM (786-0): 99.4% | growth at 10 µM (ACHN): 108% | growth at 10 µM (CAKI-1): 116% | growth at 10 µM (SN12C): 101% | growth at 10 µM (TK-10): 94% | growth at 10 µM (UO-31): 95.5% | growth at 10 µM (PC-3): 102% | growth at 10 µM (MCF7): 105% | growth at 10 µM (BT-549): 91.7% | growth at 10 µM (T47D): 96% | growth at 10 µM (MDA-MB-468): 92.3%

CC(=O)Nc1cc(CO)cc(NC(=O)c2ccc(C(=O)Nc3cccc(NC(=O)CCCN(C)C)c3)cc2)c1
growth at 10 µM (HL-60(TB)): 91.2% | growth at 10 µM (RPMI-8226): 95.6% | growth at 10 µM (HOP-62): 77.7% | growth at 10 µM (NCI-H226): 93.6% | growth at 10 µM (NCI-H322M): 98.5% | growth at 10 µM (NCI-H522): 79.5% | growth at 10 µM (HCC 2998): 97.7% | growth at 10 µM (HCT-116): 79% | growth at 10 µM (HCT-15): 105% | growth at 10 µM (HT-29): 59.4% | growth at 10 µM (KM12): 83.1% | growth at 10 µM (SF-268): 79.4% | growth at 10 µM (SF-539): 88% | growth at 10 µM (SNB-19): 114% | growth at 10 µM (SNB-75): 62.2% | growth at 10 µM (U-251): 69.9% | growth at 10 µM (LOX IMVI): 88.1% | growth at 10 µM (Malme-3M): 17.6% | growth at 10 µM (M14): 81% | growth at 10 µM (MDA-MB-435): 70% | growth at 10 µM (SK-MEL-2): 91.8% | growth at 10 µM (SK-MEL-28): 85.3% | growth at 10 µM (SK-MEL-5): 77.7% | growth at 10 µM (UACC-257): 88% | growth at 10 µM (UACC-62): 64.6% | growth at 10 µM (IGROV-1): 87.4% | growth at 10 µM (OVCAR-3): 119% | growth at 10 µM (OVCAR-5): 109% | growth at 10 µM (OVCAR-8): 105% | growth at 10 µM (786-0): 104% | growth at 10 µM (ACHN): 92.8% | growth at 10 µM (CAKI-1): 101% | growth at 10 µM (SN12C): 103% | growth at 10 µM (TK-10): 117% | growth at 10 µM (UO-31): 112% | growth at 10 µM (PC-3): 98.6% | growth at 10 µM (MCF7): 25.2% | growth at 10 µM (BT-549): 108% | growth at 10 µM (T47D): 82.4% | growth at 10 µM (MDA-MB-468): 83.8%
